This passage reports EC50 and Emax results from patent publication US20220363719A1, “Reverse Amide-Linked Melanocortin Receptor-Specific Cyclic Peptides” (Palatin Technologies, Inc., priority 2020, published 2022).

Where a SMILES comes first, the peptide text is derived from it. Bridges are numbered along the chain shown (N, C = ends). [ ]: non-standard residue; d: D form. The star is where a group is joined. ξ: configuration not given here. d1Nal = N[C@H](Cc1cccc2ccccc12)C(=O)O; Nle = CCCC[C@H](N)C(=O)O; Dab = NCC[C@H](N)C(=O)O; ξHyp = O=C(O)C1CC(O)CN1; Dap = NC[C@H](N)C(=O)O; Hexanoyl = CCCCCC(=O)*; Ava = NCCCCC(=O)O; Bn = c1ccc(C*)cc1; βAla = NCCC(=O)O A value given as a limit tells only on which side of the number the result lay.

Common to all, as to format: cell-based
For test [1], the target named is T1, mMC1r (Mus musculus, UniProt Q01727). Description: cAMP agonist activity assay performed at CEREP (HTRF), MC1. Particulars: determined by CEREP, B16-F1 cells; for EC50: cAMP HTRF; for Emax: control NDP-alpha-MSH, read-out: Emax percent mMC1r* (percent of the maximal response obtained with the positive control). The method, then: (§1) Evaluation of the agonist activity of compounds at the melanocortin receptors was determined by measuring their effects on cAMP production using the HTRF detection method at CEREP (Eurofins CEREP SA, Celle-Lévescault, France). The cells were suspended in HBSS buffer (Invitrogen) complemented with 20 mM HEPES (pH 7.4) and 500 μM IBMX, then distributed in microplates and incubated in the presence of HBSS (basal control), the test compound or the reference agonist. Incubation time, temperature, cell number, reference agonist and cell line information are included in the Table 1 below. For stimulated control measurement, separate assay wells contain reference compound. Following incubation, the cells are lysed and the fluorescence acceptor (D2-labeled cAMP) and fluorescence donor (anti-cAMP antibody labeled with europium cryptate) were added. After 60 minutes at room temperature, the fluorescence transfer was measured at excitation wavelength 337 nm and emission wavelengths 620 and 665 nm using a microplate reader (Envision, Perkin Elmer). The cAMP concentration was determined by dividing the signal measured at 665 nm by that measured at 620 nm (ratio).
(§2) The results are expressed as a percent of the control response to 1 μM of the reference. The standard reference agonist is tested in each experiment at several concentrations to generate a concentration-response curve from which its EC50 value is calculated.
On the technique in general: In TR-FRET formats the signal depends on donor and acceptor labels being close together.

In test [2] the target is T2, hMC5r (Homo sapiens, UniProt P33032).
T2 construct: Eurofins CEREP SA
Description: cAMP agonist activity assay performed at CEREP (HTRF), MC5. The following applies: determined by CEREP, CHO-K1 cells; for EC50: cAMP HTRF; for Emax: control Alpha-MSH, read-out: Emax percent hMC5r* (percent of the maximal response obtained with the positive control). The method, then:
as §1, §2

Test [3] addresses T3, hMC3r (Homo sapiens, UniProt P41968). Description: cAMP agonist activity assay performed at CEREP (HTRF), MC3. The arrangement: expressed in transfected cells. Particulars: determined by CEREP, CHO-K1 cells. On the procedure:
as §1
(§3) The results are expressed as a percent of the control response to 1 μM of the reference. […]

For test [4], the target named is T4, hMC4r (Homo sapiens, UniProt P32245). Description: cAMP agonist activity assay performed at CEREP (HTRF), MC4. Further details: expressed in transfected cells. Particulars: determined by CEREP, CHO-K1 cells. On the procedure:
as §1, §3

Test [5] addresses T3, hMC3r. In words: Alternative assay for agonist activity (intracellular cAMP), HEK-293 cells, recombinant MC3r. Further details: expressed in transfected cells; host or cells: HEK-293. Particulars: for Emax: HEK293, not CEREP, reference NDP-α-MSH, read-out: Emax percent hMC3r (percent of the maximal response obtained with the positive control); for EC50: not CEREP, cAMP HTRF. On the procedure:
(§4) Accumulation of intracellular cAMP was examined as a measure of the ability of the peptides to elicit a functional response in either HEK-293 cells that express recombinant MC3r or MC4r or B16-F10 (mouse) and HBL (human) cell lines that express native MC1 r. Confluent cells were detached from culture plates by incubation in enzyme-free cell dissociation buffer. Dispersed cells were suspended in Hank's Balanced Salt Solution containing 10 mM HEPES (pH 7.5), 1 mM MgCl2, 1 mM glutamine, 0.5% albumin and 0.3 mM 3-isobutyl-1-methyl-xanthine (IBMX), a phosphodiesterase inhibitor. The cells were dispensed into 96-well plates at a density of 0.5×10^5 cells per well and pre-incubated for 10 minutes. Cells were exposed for 15 minutes at 37° C. to peptides dissolved in DMSO (final DMSO concentration of 1%) at a concentration range of 0.05-5000 nM in a total assay volume of 200 μL. NDP-α-MSH was used as the reference agonist. cAMP levels were determined by an HTRF® cAMP cell-based assay system from Cisbio Bioassays utilizing cryptate-labeled anti-cAMP and D2-labeled cAMP, with plates read on a Perkin-Elmer Victor plate reader at […]. Data analysis was performed by nonlinear regression analysis with Graph-Pad Prism® software. The maximum efficacies of the test peptides were compared to that achieved by the reference melanocortin agonist NDP-α-MSH.

Test [6] concerns the target T4, hMC4r. Description: Alternative assay for agonist activity (intracellular cAMP), HEK-293 cells, recombinant MC4r. The arrangement: expressed in transfected cells; host or cells: HEK-293. Particulars: for Emax: HEK293, not CEREP, reference NDP-α-MSH, read-out: Emax percent hMC4r (percent of the maximal response obtained with the positive control); for EC50: not CEREP, cAMP HTRF. The method, then: as §4

For test [7], the target named is T1, mMC1r. Description: Alternative assay for agonist activity (intracellular cAMP), B16-F10 cells, native MC1r. Further details: B16-F10 (mouse) and HBL (human) cell lines that express native MC1 r; endogenous in cells; host or cells: B16-F10 mouse melanoma cells. The following applies: not CEREP; for EC50: cAMP HTRF; for Emax: reference NDP-α-MSH, read-out: Emax percent mMC1r (percent of the maximal response obtained with the positive control). On the procedure: as §4

The target of test [8] is T2, hMC5r. In words: Agonist activity (EC50/Emax) at hMC5r, not determined by CEREP. The following applies: for Emax: read-out: Emax percent hMC5r (percent of the maximal response obtained with the positive control).
A further test has as its target T5, hMC1r (Homo sapiens, UniProt Q01726).
T5 construct: B16-F10 (mouse) and HBL (human) cell lines that express native MC1 r; endogenous in cells; host or cells: HBL human melanoma cells
Description: Alternative assay for agonist activity (intracellular cAMP), HBL cells, native MC1r. Particulars: not CEREP; for EC50: cAMP HTRF; for Emax: reference NDP-α-MSH, read-out: Emax percent hMC1r (percent of the maximal response obtained with the positive control). The method, then: as §4

T1 sequence (Q01727 whole entry): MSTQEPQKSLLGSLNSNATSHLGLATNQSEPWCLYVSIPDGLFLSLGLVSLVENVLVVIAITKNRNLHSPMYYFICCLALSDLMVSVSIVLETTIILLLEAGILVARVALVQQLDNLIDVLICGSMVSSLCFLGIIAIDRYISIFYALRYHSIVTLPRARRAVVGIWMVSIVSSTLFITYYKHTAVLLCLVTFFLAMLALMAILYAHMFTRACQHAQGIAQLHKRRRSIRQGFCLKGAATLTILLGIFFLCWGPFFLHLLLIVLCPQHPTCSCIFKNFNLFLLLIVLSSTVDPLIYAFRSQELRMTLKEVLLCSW
T2 sequence (P33032 whole entry): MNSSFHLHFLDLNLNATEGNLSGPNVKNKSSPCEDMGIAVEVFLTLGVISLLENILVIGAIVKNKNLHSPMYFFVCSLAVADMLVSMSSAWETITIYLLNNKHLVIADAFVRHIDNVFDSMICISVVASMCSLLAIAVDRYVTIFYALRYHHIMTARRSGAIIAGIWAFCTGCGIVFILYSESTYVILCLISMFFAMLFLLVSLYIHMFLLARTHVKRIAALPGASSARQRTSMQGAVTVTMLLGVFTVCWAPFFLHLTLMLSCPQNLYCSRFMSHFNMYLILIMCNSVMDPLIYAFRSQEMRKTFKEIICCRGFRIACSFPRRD
T5 sequence (Q01726 whole entry): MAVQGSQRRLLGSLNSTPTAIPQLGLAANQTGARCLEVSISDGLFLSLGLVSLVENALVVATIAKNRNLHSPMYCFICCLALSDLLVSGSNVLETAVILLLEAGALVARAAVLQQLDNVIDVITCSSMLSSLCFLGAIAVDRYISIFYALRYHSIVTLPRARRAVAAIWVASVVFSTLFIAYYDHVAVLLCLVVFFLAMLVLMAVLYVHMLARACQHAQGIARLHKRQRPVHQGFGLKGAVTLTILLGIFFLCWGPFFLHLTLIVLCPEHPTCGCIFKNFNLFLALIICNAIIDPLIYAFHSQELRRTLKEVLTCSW
T3 sequence (P41968 whole entry): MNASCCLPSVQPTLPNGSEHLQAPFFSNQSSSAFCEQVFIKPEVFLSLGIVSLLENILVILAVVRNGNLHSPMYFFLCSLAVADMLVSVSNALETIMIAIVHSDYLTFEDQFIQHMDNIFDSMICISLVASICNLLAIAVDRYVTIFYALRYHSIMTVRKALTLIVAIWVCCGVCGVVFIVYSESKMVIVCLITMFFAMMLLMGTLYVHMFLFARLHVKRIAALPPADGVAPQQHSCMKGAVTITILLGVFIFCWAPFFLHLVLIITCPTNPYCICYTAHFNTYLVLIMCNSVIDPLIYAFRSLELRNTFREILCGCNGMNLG
T4 sequence (P32245 whole entry): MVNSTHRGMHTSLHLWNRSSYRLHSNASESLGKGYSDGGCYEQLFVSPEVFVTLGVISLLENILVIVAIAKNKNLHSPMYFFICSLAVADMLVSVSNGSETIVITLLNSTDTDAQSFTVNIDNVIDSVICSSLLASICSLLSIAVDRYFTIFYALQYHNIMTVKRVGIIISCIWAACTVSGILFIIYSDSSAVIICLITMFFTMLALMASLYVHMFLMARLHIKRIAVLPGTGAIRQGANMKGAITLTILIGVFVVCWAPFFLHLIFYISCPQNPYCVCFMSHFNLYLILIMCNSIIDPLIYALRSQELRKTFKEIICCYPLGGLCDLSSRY

`CCCC[C@H](NC(C)=O)C(=O)N[C@H]1CCCCNC(=O)CNC(=O)[C@H](Cc2c[nH]c3ccccc23)NC(=O)[C@H](CCCNC(=N)N)NC(=O)[C@@H](Cc2cccc3ccccc23)NC(=O)C2CC(OCc3ccccc3)CN2C1=O` (some centres unmarked) [Peptide 1] (Ac-[Nle]K[ξHyp](Bn)[d1Nal]RWG; lactam 2-C): the EC50 is 260 nM on mMC1r [1]; 0.22 nM at hMC5r [2]; more than 10000 nM on hMC3r [3] (cAMP HTRF); 0.82 nM on hMC4r [4] (cAMP HTRF); more than 10000 nM on hMC3r [5]; 0.5 nM on hMC4r [6]. The same compound registered an EC50 at mMC1r [7] of 3 nM. Further, the Emax on mMC1r [1] is 65%; on hMC5r [2] it was 110%; on hMC3r [3] (control NDP-alpha-MSH, read-out: Emax percent hMC3r* (percent of the maximal response obtained with the positive control)) it was 9%; at hMC4r [4] (control NDP-alpha-MSH, read-out: Emax percent hMC4r* (percent of the maximal response obtained with the positive control)) it was 50%; at hMC3r [5], 12%; on hMC4r [6], 39%. Further, the Emax on mMC1r [7] amounted to 58%.
For the compound `CCCC[C@H](NC(C)=O)C(=O)N[C@H]1CNC(=O)CCNC(=O)[C@H](Cc2c[nH]c3ccccc23)NC(=O)[C@H](CCCNC(=N)N)NC(=O)[C@@H](Cc2cccc3ccccc23)NC(=O)C2CC(OCc3ccccc3)CN2C1=O` (some centres unmarked) [Peptide 7] (Ac-[Nle][Dap][ξHyp](Bn)[d1Nal]RW[βAla]; lactam 2-C), the EC50 on hMC5r [2] was 2 nM; at hMC5r [8], 1 nM; on hMC3r [5], more than 10000 nM; on hMC4r [6], 5 nM; at mMC1r [7], 17 nM. Moreover, the Emax was found to be 97% at hMC5r [2]; 71% on hMC5r [8]; 7% on hMC3r [5]; 26% on hMC4r [6]; 74% on mMC1r [7].
Take `CC(=O)N[C@@H](CCCNC(=N)N)C(=O)N[C@H]1CCNC(=O)CCCCNC(=O)[C@H](Cc2c[nH]c3ccccc23)NC(=O)[C@H](CCCNC(=N)N)NC(=O)[C@@H](Cc2ccccc2)NC(=O)[C@H](CC(N)=O)NC1=O` [Peptide 10] (Ac-R[Dab]N[dF]RW[Ava]; lactam 2-C): the EC50 at hMC5r [2] is 1600 nM; at hMC5r [8], 207 nM; at hMC3r [5], 6 nM; on hMC4r [6], 0.9 nM; on mMC1r [7], 113 nM. Further, the Emax on hMC5r [2] was 71%; on hMC5r [8], 54%; on hMC3r [5], 63%; at hMC4r [6], 111%; at mMC1r [7] it was 94%.
For `CC(=O)N[C@@H](CCCNC(=N)N)C(=O)N[C@H]1CCNC(=O)CCCCNC(=O)[C@H](Cc2c[nH]c3ccccc23)NC(=O)[C@H](CCCNC(=N)N)NC(=O)[C@@H](Cc2ccc(F)cc2)NC(=O)[C@H](Cc2c[nH]cn2)NC1=O` [Peptide 16], the EC50 was found to be 0.01 nM at mMC1r [1]; 0.71 nM at hMC5r [2]; 0.6 nM on hMC1r; 2 nM at hMC5r [8]; 0.9 nM on hMC4r [6]. Further, the Emax on mMC1r [1] was determined as 108%; on hMC5r [2] it was 60%; at hMC1r it was 106%; on hMC5r [8], 58%; on hMC4r [6] it was 102%.
As for `CCCCCC(=O)N[C@H]1CNC(=O)CNC(=O)[C@H](CCCNC(=N)N)NC(=O)[C@@H](Cc2ccccc2)NC(=O)[C@H](Cc2c[nH]cn2)NC1=O` [Peptide 17] (Hexanoyl-[Dap]H[dF]RG; lactam 1-C), the EC50 on mMC1r [1] was 1300 nM; on hMC5r [2] it was more than 10000 nM; at hMC1r, 10 nM; on hMC3r [5], more than 10000 nM; on hMC4r [6], 7800 nM; at mMC1r [7] it was 1000 nM. The Emax at mMC1r [1] is 83%; at hMC5r [2], -0.5%; on hMC1r it was 94%; on hMC3r [5], 12%; at hMC4r [6], 14%; on mMC1r [7] it was 84%.
As to `CCCCCC(=O)N[C@H]1CNC(O)CCNC(=O)[C@H](CCCNC(=N)N)NC(=O)[C@@H](Cc2ccccc2)NC(=O)[C@H](Cc2c[nH]cn2)NC1=O` (some centres unmarked) [Peptide 18], the EC50 at mMC1r [1] was 180 nM; on hMC5r [2], more than 10000 nM; on hMC1r, 5 nM; on hMC3r [5], 7680 nM; on hMC4r [6] it was 2100 nM; on mMC1r [7], 90 nM. Besides, the Emax was determined as 90% on mMC1r [1]; 3% at hMC5r [2]; 89% on hMC1r; 16% on hMC3r [5]; 68% at hMC4r [6]; 99% at mMC1r [7].
Regarding `CCCCCC(=O)N[C@H]1CNC(=O)CCCCNC(=O)[C@H](CCCNC(=N)N)NC(=O)[C@@H](Cc2ccccc2)NC(=O)[C@H](Cc2c[nH]cn2)NC1=O` [Peptide 19] (Hexanoyl-[Dap]H[dF]R[Ava]; lactam 1-C), the EC50 at mMC1r [1] was 2600 nM; at hMC5r [2], more than 10000 nM; at hMC1r it was 3 nM; on hMC3r [5], more than 10000 nM; at hMC4r [6], 4300 nM; on mMC1r [7], 350 nM. The Emax on mMC1r [1] turned out to be 74%; on hMC5r [2], 5%; on hMC1r, 92%; on hMC3r [5], 0.5%; at hMC4r [6], 70%; on mMC1r [7], 80%.

By EC50 is commonly meant the midpoint of the concentration-response curve. The term Emax denotes the size of the effect at its maximum, as opposed to the concentration needed.
